Assay results taken from patent US20230172189A1, “Methods for Extending the Shelf-life of Stored Donor Blood and/or Red Blood Cells and Treated Red Blood Cell Compositions Produced Thereby” (Ohio University, priority 2020, published 2023).

Key:
RBCs [1] = assay: Hemolysis of RBCs during lipid exchange (UV-Vis absorbance at 541 nm); type: cell-based; settings: for hemolysis of RBCs during lipid exchange: exogenous lipid loaded into MαCD, one hour incubation
Method: The release of hemoglobin from the RBCs is considered as a sign of disrupting the cell membrane and consequently extracting the inner leaflet.
The hemolysis of RBCs during lipid exchange was measured using UV-Vis spectroscopy.
Presence of hemoglobin in the exchange solution is believed to be a disruption of the RBCs, lead to extracting the inner leaflet of the membrane. To monitor the amount of hemolysis after the exchange, the cells were centrifuged at 750×g for 5 minutes, 200 μL of the supernatant was collected, and its absorbance at 541 nm was measured using a plate reader. RBCs suspended in DPBS and water for 1 hour, at the same hematocrit concentrations as the ones used for exchange experiments, were used as negative and positive controls for the hemolysis. Both controls were also centrifuged at 750×g for 5 minutes.

RBCs [2] = assay: Confocal microscopy of RBCs after exchange with a fluorescent lipid; type: cell-based; settings: 19:1 POPS:NBD-PE, one hour incubation, with or without MαCD
Method: To confirm that MαCD mediates the lipid exchange and that the lipids are exchanged with the outer leaflet only, confocal microscopy was performed on the RBCs after the exchange. A mixture of POPS and 1,2-dipalmitoyl-sn-glycero-3-phosphoethanolamine-N-(7-nitro-2-1,3-benzoxadiazol-4-yl) (NBD-PE) with a molar ratio 19:1 POPS:NBD-PE was used. RBCs are incubated for one hour with the lipid mixture without MαCD (FIG. 2A) or with the lipid mixture loaded into MαCD (FIG. 2B).
Delivering of the phospholipids to the membrane was studied using fluorescence. A quenching agent was used to diminish the fluorescence to examine whether the lipids were delivered to the outer or inner leaflet. Organic solutions of a fluorescent phospholipid (NBD-PE) and POPS were mixed to a molar ratio of 1:19 NBD-PE:POPS. The other steps prior to the exchange experiment were as mentioned before. After the exchange, the cells were centrifuged at 750×g for 5 minutes, the precipitated RBCs were collected, re-suspended in 10% sucrose in DPBS, loaded onto a glass slide, and imaged using a confocal microscope. Sodium dithionite solution was made to a concentration of 50 mM and was added to an aliquot of the exchanged RBCs 1 minute prior to loading onto glass slides and imaging.

Row | Compound | hemolysis of RBCs during lipid exchange (RBCs [1]) | capability of mediating the exchange process (RBCs [1]; two MαCD concentrations tested during optimisation) | mediation of lipid exchange with RBC outer leaflet (RBCs [2])
1 | CCCCCCCC/C=C\CCCCCCCC(=O)OC(COC(=O)CCCCCCCCCCCCCCC)COP(=O)([O-])OCC[N+](C)(C)C (stereo not shown) [POPC, 1-palmitoyl-2-oleoyl-glycero-3-phosphocholine] | lowest hemolysis | – | –
2 | CCCCCCCC/C=C\CCCCCCCC(=O)O[C@H](COC(=O)CCCCCCCCCCCCCCC)COP(=O)(O)OC[C@H](N)C(=O)O [POPS, 1-palmitoyl-2-oleoyl-sn-glycero-3-phospho-L-serine] | lowest hemolysis | – | –
3 | methyl-α-cyclodextrin [MαCD] | – | both concentrations were capable of mediating the exchange process | lipid exchange only occurs in the presence of MαCD
